By IC50 is commonly meant the midpoint of a concentration-inhibition curve.

From patent publication US9580432B2, “Fused pyrimidine compound or salt thereof” (TAIHO PHARMACEUTICAL CO., LTD., priority 2013, dated 2017) come the findings set out here.

One experiment relates to A431 cells / TMD8 cells. Briefly: Proliferation inhibitory activity against cell lines expressing BTK and EGFR (in vitro), comparison of selectivity. The conditions noted are these: ratio from GI50 (nM), 3 days culture, CELLTITER GLO. The class given is cell-based, human. An excerpt:
TMD8 cells, which are of a diffuse large B-cell lymphoma cell line expressing BTK, were suspended in RPMI1640 medium (manufactured by Life Technologies Corp.) containing 10% fetal bovine serum. A431 cells, which are of an EGFR-overexpressing, highly activated human epidermoid carcinoma cell line, were suspended in DMEM, high glucose medium (manufactured by Life Technologies Corp.) containing 10% fetal bovine serum. The cell suspensions were inoculated into each well of 384-well flat-bottomed microplates, and the cells were cultured for 1 day at 37° C. in an incubator containing 5% carbon dioxide gas. […] A DMSO solution of the test compounds was diluted with the medium used in the suspension of the each cells, and this was added to each of the wells of the cell culture plates such that the final concentration of DMSO would be 0.2%. The cells were further cultured for 3 days at 37° C. in an incubator containing 5% carbon dioxide gas. […] Proliferation inhibition ratio (%)=(C−T)/(C−C0)×100
T: Luminescence intensity of a well in which the test compound was added
C: Luminescence intensity of a well in which the test compound was not added
C0: Luminescence intensity of a well measured before the addition of the test compound
When a comparison is made between the cell proliferation inhibitory activity against A431 cells that depends on the EGFR proliferation signaling and the cell proliferation inhibitory activity against TMD8 cells that depends on the BTK proliferation signaling, the influence of the respective kinases at a cellular level is able to be evaluated. That is, when the “A431 cell proliferation inhibition ratio/TMD8 cell proliferation inhibition ratio” is calculated, it is contemplated that as the value of the ratio is larger, the selectivity to BTK over EGFR in the cells is higher.
A general note: ATP-based viability assays read luminescence as a measure of living cells.

Experiment [1] has as its system purified recombinant human EGFR protein / BTK. The experiment in a line: BTK inhibition selectivity compared with EGFR kinase inhibitory activity (in vitro). The class given is biochemical. The conditions noted are these: EGFR assay ATP 1.5 μM. On the procedure:
1) Measurement of BTK Inhibitory Activity
2) Measurement of EGFR Inhibitory Activity
Therefore, a biotinated peptide (biotin-[…]) was produced by referring to the amino acid sequence of the peptide. The purified recombinant human EGFR protein used in the test was purchased from Carna Biosciences, Inc.
With regard to the measurement of the inhibitory activity of the compounds, firstly, the compounds of the present invention were diluted stepwise with dimethyl sulfoxide (DMSO). […] The reaction was terminated by adding EDTA thereto in order to obtain a final concentration of 24 mM. Subsequently, a detection liquid containing Eu-labeled anti-phosphorylated tyrosine antibody PT66 (PerkinElmer, Inc.) and […] APC-SA (PerkinElmer, Inc.) was added thereto, and the system was left to stand for 2 hours or longer at room temperature.
3) BTK Inhibition Selectivity

In experiment [2] the target is purified recombinant human BTK protein (Homo sapiens (Human), UniProt Q06187). Briefly: Measurement of BTK inhibitory activity (in vitro). Format: biochemical. The conditions noted are these: FL-PEPTIDE 2 substrate 1 μM, ATP 45 μM, 40 minutes at 25° C. An excerpt:
With regard to the setting of the conditions for a method for measuring the inhibitory activity of a compound against BTK kinase activity in vitro, it is described in the consumable reagent supplies price list for LabChip (registered trademark) series of PerkinElmer, Inc. that FL-PEPTIDE 2 corresponds to a substrate peptide for the measurement of BTK kinase activity. Therefore, FL-PEPTIDE 2 was used as a substrate. The purified recombinant human BTK protein used in the test was purchased from Carna Biosciences, Inc.
With regard to the measurement of the inhibitory activity of the compounds, firstly, the compounds of the present invention were diluted stepwise with dimethyl sulfoxide (DMSO). Subsequently, BTK protein, a substrate peptide (final concentration was 1 μM), magnesium chloride (final concentration was 10 mM), ATP (final concentration was 45 μM), and a DMSO solution of the compounds of the present invention (final concentration of DMSO was 5%) were added to a buffer solution for kinase reaction (20 mM HEPES (pH 7.5), 2 mM dithiotheitol, 0.01% Triton X-100), and after the solution was incubated for 40 minutes at 25° C., a kinase reaction was carried out. The reaction was terminated by adding EDTA thereto in order to obtain a final concentration of 30 mM. Finally, a substrate peptide that was not phosphorylated (S) and a phosphorylated peptide (P) were separated and detected by microchannel capillary electrophoresis using a LabChip EZ Reader II (PerkinElmer, Inc.).

Sequence of purified recombinant human BTK protein (Q06187 whole entry): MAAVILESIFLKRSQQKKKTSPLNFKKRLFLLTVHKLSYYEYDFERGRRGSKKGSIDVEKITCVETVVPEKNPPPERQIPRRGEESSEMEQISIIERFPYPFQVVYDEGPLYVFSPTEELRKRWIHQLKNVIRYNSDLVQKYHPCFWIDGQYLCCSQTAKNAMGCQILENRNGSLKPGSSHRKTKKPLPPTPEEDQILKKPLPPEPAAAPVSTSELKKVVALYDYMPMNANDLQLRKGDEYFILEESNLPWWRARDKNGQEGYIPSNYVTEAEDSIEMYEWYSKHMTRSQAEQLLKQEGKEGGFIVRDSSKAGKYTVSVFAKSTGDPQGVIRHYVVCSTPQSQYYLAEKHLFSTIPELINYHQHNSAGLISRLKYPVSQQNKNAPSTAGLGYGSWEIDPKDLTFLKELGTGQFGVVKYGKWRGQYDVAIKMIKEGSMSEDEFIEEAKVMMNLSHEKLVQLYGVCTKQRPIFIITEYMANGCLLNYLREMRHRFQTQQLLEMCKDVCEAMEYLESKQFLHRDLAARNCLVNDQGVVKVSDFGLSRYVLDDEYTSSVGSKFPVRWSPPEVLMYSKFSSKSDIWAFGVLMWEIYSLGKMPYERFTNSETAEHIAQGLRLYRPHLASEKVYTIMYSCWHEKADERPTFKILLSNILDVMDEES

With `C=CC(=O)N[C@H]1CC[C@@H](n2nc(C(=O)Nc3nc4cc(F)ccc4o3)c3c(N)ncnc32)CC1` [Example 81, 1-((1S,4S)-4-acrylamidocyclohexyl)-4-amino-N-(5-fluorobenzo[d]oxazol-2-yl)-1H-pyrazolo[3,4-d]pyrimidine-3-carboxamide], the “A431 cell proliferation inhibition ratio/TMD8 cell proliferation inhibitio ratio” value with A431 cells / TMD8 cells was found to be 8346.7. Further, in experiment [1], the “EGFR inhibitory activity IC50 value (nM)/BTK inhibitory activity IC50 value (nM)” value (shortened to “EGFR inhibitory activity IC50 value”) is reported as 204.9.

With `C=CC(=O)N1CC(Cn2nc(C(=O)Nc3nc4cc(F)ccc4o3)c3c(N)ncnc32)C1` [Example 75, 1-((1-acryloylazetidin-3-yl)methyl)-4-amino-N-(5-fluorobenzo[d]oxazol-2-yl)-1H-pyrazolo[3,4-d]pyrimidine-3-carboxamide], the “A431 cell proliferation inhibition ratio/TMD8 cell proliferation inhibitio ratio” value with A431 cells / TMD8 cells was greater than 1643.7. Moreover, the “EGFR inhibitory activity IC50 value” value in experiment [1] was found to be 58.2.

For the molecule `C=CC(=O)N[C@H]1CC[C@H](n2nc(C(=O)Nc3nc4ccccc4o3)c3c(N)ncnc32)CC1` [Example 72, 1-((1R,4R)-4-acrylamidocyclohexyl)-4-amino-N-(benzo[d]oxazol-2-yl)-1H-pyrazolo[3,4-d]pyrimidine-3-carboxamide], the “A431 cell proliferation inhibition ratio/TMD8 cell proliferation inhibitio ratio” value in the experiment on A431 cells / TMD8 cells is on record as greater than 2802.7. Further, the “EGFR inhibitory activity IC50 value” value in experiment [1] turned out to be 12.4. The IC50 in experiment [2] worked out at 28.1 nM.

Take `CN(C)C/C=C/C(=O)N1CC[C@@H](n2nc(C(=O)Nc3nc4cc(Cl)ccc4o3)c3c(N)ncnc32)C1` [Example 32, (R,E)-4-amino-N-(5-chlorobenzo[d]oxazol-2-yl)-1-(1-(4-(dimethylamino)but-2-enoyl)pyrrolidin-3-yl)-1H-pyrazolo[3,4-d]pyrimidine-3-carboxamide]: the “A431 cell proliferation inhibition ratio/TMD8 cell proliferation inhibitio ratio” value with A431 cells / TMD8 cells is recorded as greater than 11123.5. Further, the “EGFR inhibitory activity IC50 value” value in experiment [1] stood at 43.1. Further, the IC50 in experiment [2] was 0.634 nM.

`CC(C)N(C)C/C=C/C(=O)N1CC[C@@H](n2nc(C(=O)Nc3nc4cc(Cl)ccc4o3)c3c(N)ncnc32)C1` [Example 35, (R,E)-4-amino-N-(5-chlorobenzo[d]oxazol-2-yl)-1-(1-(4-(isopropyl(methyl)amino)but-2-enoyl)pyrrolidin-3-yl)-1H-pyrazolo[3,4-d]pyrimidine-3-carboxamide]: in the experiment on A431 cells / TMD8 cells, the “A431 cell proliferation inhibition ratio/TMD8 cell proliferation inhibitio ratio” value is recorded as greater than 18691.6. Also, the “EGFR inhibitory activity IC50 value” value in experiment [1] is given as 35.1. Further, the IC50 in experiment [2] was 0.792 nM.

With `C=CC(=O)N[C@H]1CC[C@@H](n2nc(C(=O)Nc3nc4cc(Cl)ccc4o3)c3c(N)ncnc32)CC1` [Example 78, 1-((1S,4S)-4-acrylamidocyclohexyl)-4-amino-N-(5-chlorobenzo[d]oxazol-2-yl)-1H-pyrazolo[3,4-d]pyrimidine-3-carboxamide], the “A431 cell proliferation inhibition ratio/TMD8 cell proliferation inhibitio ratio” value with A431 cells / TMD8 cells is recorded as greater than 23596.7. Also, the “EGFR inhibitory activity IC50 value” value in experiment [1] is given as 100.7.

As to `C=CC(=O)N1CCC(n2nc(C(=O)Nc3nc4cc(F)ccc4o3)c3c(N)ncnc32)C1` (centres unmarked) [Example 83, 1-(1-acryloylpyrrolidin-3-yl)-4-amino-N-(5-fluorobenzo[d]oxazol-2-yl)-1H-pyrazolo[3,4-d]pyrimidine-3-carboxamide], the “A431 cell proliferation inhibition ratio/TMD8 cell proliferation inhibitio ratio” value in the experiment with A431 cells / TMD8 cells is given as greater than 18797.0. Besides, the “EGFR inhibitory activity IC50 value” value in experiment [1] stood at 39.6.

Regarding `C=CC(=O)N1CCC(n2nc(C(=O)Nc3nc4ccccc4o3)c3c(N)ncnc32)C1` (centres unmarked) [Example 82, 1-(1-acryloylpyrrolidin-3-yl)-4-amino-N-(benzo[d]oxazol-2-yl)-1H-pyrazolo[3,4-d]pyrimidine-3-carboxamide], the “A431 cell proliferation inhibition ratio/TMD8 cell proliferation inhibitio ratio” value in the experiment on A431 cells / TMD8 cells amounted to 8143.0. In experiment [1], the “EGFR inhibitory activity IC50 value” value is given as 10.9.

Consider `CC(C)N(C)C/C=C/C(=O)N1CC[C@@H](n2cc(C(=O)Nc3nc4cc(-c5ccccc5)ccc4o3)c3c(N)ncnc32)C1` [Example 59, (R,E)-4-amino-N-(5-phenylbenzo[d]oxazol-2-yl)-7-(1-(4-(isopropyl(methyl)amino)but-2-enoyl)pyrrolidin-3-yl) 7H-pyrrolo[2,3-d]pyrimidine-5-carboxamide], for which the “EGFR inhibitory activity IC50 value” value in experiment [1] was 16.3. In experiment [2], the IC50 came out at 1.51 nM.

Regarding `Nc1ncnc2c1c(C(=O)Nc1nc3cc(Cl)ccc3o1)nn2[C@@H]1CCN(C(=O)/C=C/CN2CCCCC2)C1` [Example 37, (R,E)-4-amino-N-(5-chlorobenzo[d]oxazol-2-yl)-1-(1-(4-(piperidin-1-yl)but-2-enoyl)pyrrolidin-3-yl)-1H-pyrazolo[3,4-d]pyrimidine-3-carboxamide], in experiment [1], the “EGFR inhibitory activity IC50 value” value turned out to be 70.5. Further, in experiment [2], the IC50 is 0.786 nM.

For the molecule `C=CC(=O)N1CCC(Cn2nc(C(=O)Nc3nc4cc(F)ccc4o3)c3c(N)ncnc32)CC1` [Example 77, 1-((1-acryloylpiperidin-4-yl)methyl)-4-amino-N-(5-fluorobenzo[d]oxazol-2-yl)-1H-pyrazolo[3,4-d]pyrimidine-3-carboxamide], in the experiment on A431 cells / TMD8 cells, the “A431 cell proliferation inhibition ratio/TMD8 cell proliferation inhibitio ratio” value is on record as greater than 6793.5. Also, the “EGFR inhibitory activity IC50 value” value in experiment [1] was 203.7.

Regarding `C/C=C/C(=O)N1CCC[C@@H](n2nc(C(=O)Nc3nc4cc(Cl)ccc4o3)c3c(N)ncnc32)C1` [Example 5, (R,E)-4-amino-N-(5-chlorobenzo[d]oxazol-2-yl)-1-(1-(but-2-enoyl)piperidin-3-yl)-1H-pyrazolo[3,4-d]pyrimidine-3-carboxamide], the “EGFR inhibitory activity IC50 value” value in experiment [1] came to 241.0. In addition, the IC50 in experiment [2] stood at 1.25 nM.

Regarding `C=CC(=O)N1CC(Cn2nc(C(=O)Nc3nc4cc(Cl)ccc4o3)c3c(N)ncnc32)C1` [Example 76, 1-((1-acryloylazetidin-3-yl)methyl)-4-amino-N-(5-chlorobenzo[d]oxazol-2-yl)-1H-pyrazolo[3,4-d]pyrimidine-3-carboxamide], in the experiment with A431 cells / TMD8 cells, the “A431 cell proliferation inhibition ratio/TMD8 cell proliferation inhibitio ratio” value is recorded as greater than 2345.8. In addition, the “EGFR inhibitory activity IC50 value” value in experiment [1] was 11.4.

With `CC(C)=CC(=O)N1CC[C@@H](n2nc(C(=O)Nc3nc4cc(Cl)ccc4o3)c3c(N)ncnc32)C1` [Example 26, (R,E)-4-amino-N-(5-chlorobenzo[d]oxazol-2-yl)-1-(1-(3-methylbut-2-enoyl)pyrrolidin-3-yl)-1H-pyrazolo[3,4-d]pyrimidine-3-carboxamide], in experiment [1], the “EGFR inhibitory activity IC50 value” value came to 642.8. For the same molecule, the IC50 in experiment [2] is 2.79 nM.

On to `C=CC(=O)N1CCC(Cn2nc(C(=O)Nc3nc4cc(Cl)ccc4o3)c3c(N)ncnc32)CC1` [Example 80, 1-((1-acryloylpiperidin-4-yl)methyl)-4-amino-N-(5-chlorobenzo[d]oxazol-2-yl)-1H-pyrazolo[3,4-d]pyrimidine-3-carboxamide], for which the “A431 cell proliferation inhibition ratio/TMD8 cell proliferation inhibitio ratio” value in the experiment on A431 cells / TMD8 cells is 14348.9. For the same molecule, the “EGFR inhibitory activity IC50 value” value in experiment [1] amounted to 75.4.

On to `CCN(C)C/C=C/C(=O)N1CC[C@@H](n2cc(C(=O)Nc3nc4cc(-c5ccccc5)ccc4o3)c3c(N)ncnc32)C1` [Example 57, (R,E)-4-amino-N-(5-phenylbenzo[d]oxazol-2-yl)-7-(1-(4-(ethyl(methyl)amino)but-2-enoyl)pyrrolidin-3-yl) 7H-pyrrolo[2,3-d]pyrimidine-5-carboxamide], for which the “EGFR inhibitory activity IC50 value” value in experiment [1] turned out to be 19.3. Moreover, in experiment [2], the IC50 came to 1.51 nM.
